Like-named read-outs stand apart in the source and are kept apart here.
Assays:
T98G = assay: CellTiter-Glo cell proliferation assay, T98G; assay type: cell-based; settings: Table 11, read-out: Absolute IC50 (μM) T98G
Experimental: (§1) CellTiter-Glo® Luminescent Cell Viability assay (with Promega CellTiter 96® Luminescent CellTiter-Glo® kit) was used to study the proliferation inhibition by test compounds. Compounds were resuspended in DMSO to make a 25 mM stock suspension. Cells of cancer cell lines or normal tissues were seeded in 96-well plates at 1,500 to 5,000 cells/well overnight. Compounds were 2- or 3-fold diluted serially to obtain 10 concentrations. Then, the drugs were added to the cell wells by Bravo (Agilent) and incubated for 72 hours. The cells were lysed by adding CellTiter-Glo® Reagent (per manufacturer's instructions) and subsequently, the luminescence was read using EnVision® (PerkinElmer).
(§2) The percent of growth was calculated as follows. DMSO-treated cells were employed as vehicle control (High control, HC) and culture medium alone was employed as background (Low control, EC). % growth=100×(Lum sample−Lum EC)/(Lum HC−Lum EC). The ICso was calculated by concentration-response curve fitting using Graphpad Prism.
(§3) Hematological cancer cell lines tested included OCI-AML3, MV-4-11, KG-1, Kasumi-1, K562, THP-1; solid cancer cell lines tested included U87MG, U251, T98G, LN229, A172, H460, H2009, A549; normal cell lines tested included HCN2 and 3T3-L1. […] However, they were not toxic to in vitro cultured normal cells.

LN-229 = assay: CellTiter-Glo cell proliferation assay, LN-229; assay type: cell-based; settings: Table 11, read-out: Absolute IC50 (μM) LN-229
Experimental: as §1, §2, §3

U251 = assay: CellTiter-Glo cell proliferation assay, U251; assay type: cell-based; settings: Table 11, read-out: Absolute IC50 (μM) U251
Experimental: as §1, §2, §3

U87MG = assay: CellTiter-Glo cell proliferation assay, U87MG; assay type: cell-based, human; settings: U87MG, Table 12; for IC50: Homo sapiens, U-87 MG; for Bottom / Hill Slope / Top: curve fit
Experimental: as §1, §2, §3

XPO1 [1] = target: T1, XPO1 (Homo sapiens, UniProt O14980); assay: REV-GFP translocation assay in U2OS cells; assay type: cell-based; set-up: endogenous in cells; host or cells: U2OS cells stably expressing REV-GFP (clones from HD Biosciences); settings: for EC50: 1 h
T1 sequence (O14980 whole entry): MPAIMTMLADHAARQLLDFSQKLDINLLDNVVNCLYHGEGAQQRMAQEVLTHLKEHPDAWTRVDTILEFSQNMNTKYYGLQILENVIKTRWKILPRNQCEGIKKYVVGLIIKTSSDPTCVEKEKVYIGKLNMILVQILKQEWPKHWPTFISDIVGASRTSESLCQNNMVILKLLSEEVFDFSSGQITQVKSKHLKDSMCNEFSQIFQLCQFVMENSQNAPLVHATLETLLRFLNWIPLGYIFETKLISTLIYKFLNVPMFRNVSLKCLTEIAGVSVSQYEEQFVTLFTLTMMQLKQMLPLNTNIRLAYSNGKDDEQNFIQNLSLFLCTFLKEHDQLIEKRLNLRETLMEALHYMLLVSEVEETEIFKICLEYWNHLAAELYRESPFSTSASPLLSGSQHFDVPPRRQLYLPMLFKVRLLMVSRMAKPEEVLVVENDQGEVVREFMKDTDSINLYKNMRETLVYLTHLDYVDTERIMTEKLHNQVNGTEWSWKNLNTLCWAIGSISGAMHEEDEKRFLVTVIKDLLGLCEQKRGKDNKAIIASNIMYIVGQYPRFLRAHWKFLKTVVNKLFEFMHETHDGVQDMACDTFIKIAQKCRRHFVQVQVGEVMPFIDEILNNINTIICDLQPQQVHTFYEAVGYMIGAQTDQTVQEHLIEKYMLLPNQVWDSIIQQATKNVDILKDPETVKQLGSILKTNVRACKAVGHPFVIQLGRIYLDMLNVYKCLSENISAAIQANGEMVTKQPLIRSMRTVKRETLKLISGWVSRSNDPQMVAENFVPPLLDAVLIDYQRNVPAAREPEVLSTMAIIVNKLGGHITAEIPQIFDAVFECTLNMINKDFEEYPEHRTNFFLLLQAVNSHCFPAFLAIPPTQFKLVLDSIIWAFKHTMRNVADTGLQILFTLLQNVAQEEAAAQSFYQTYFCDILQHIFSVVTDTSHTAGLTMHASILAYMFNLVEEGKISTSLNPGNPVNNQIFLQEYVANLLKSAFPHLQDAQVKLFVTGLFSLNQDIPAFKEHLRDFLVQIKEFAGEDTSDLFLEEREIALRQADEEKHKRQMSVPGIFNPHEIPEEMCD
Experimental: LTD in China, and cells were cultured with growth medium. […] The highest Leptomycin B (LMB) concentration was set to 50 nM and serially diluted as the positive control, while the highest concentrations of other compounds were set to 10 μM. The cells treated with various drugs or DMSO, were incubated at 37° C. and 5% CO2 for 1 h. Then, cells were fixed with 4% formaldehyde for 15 min at room temperature. The cells were washed and stained with 100 μL Hoechst 33342 working solution for 10 min at room temperature in dark, after which the cell fluorescence was imaged with the High-Content Imaging System, ImageXpress® (Molecular Devices) using the 20× objective. The filters were set for Hoechst (350/461 nm) and GFP/FITC (488/509 nm) (wavelength for excitation and emission maxima). The % effect of REV nuclear translocation was calculated with the following formula: % effect=([…]- signals from testing compounds; ILMB-signals of 50 nM LMB group; ICTRL-signals of vehicle control group.

XPO1 [2] = target: T1, XPO1; assay: Compound washout assay in REV-GFP cells
Experimental: In order to evaluate the duration of XPO1 inhibition by test compounds on XPO1 protein after washout, washout assay was performed using REV-GFP cells. The test compounds and positive control were added to the cell well, and the plate was incubated the at 37° C. and 5% CO2 for 1 h. The drug-containing media were removed, the cells were washed, and the fresh media were added. The cells were imagined at the specified time points 0, 4, 24, 48, 72, and 96 hours to evaluate the inhibition of REV nuclear export. […] 4A. […] 4B. […] 4C.

IC50 (U87MG; read-out: Relative IC50) [µM]	IC50 (U87MG; read-out: Absolute IC50) [µM]	SMILES	Max % Inhibition (U87MG) [%]	Bottom (U87MG)	Hill Slope (U87MG)	Top (U87MG)	other results
		N.N.[Cl][Pt][Cl] [Cisplatin, reference compound]					IC50 (T98G): 12.3 µM; IC50 (LN-229): 13 µM; IC50 (U251): 6 µM
0.1		CCCC(=O)NNC(=O)/C=C\n1cnc(-c2cc(C(F)(F)F)cc(S(F)(F)(F)(F)F)c2)n1 [Compound IX, (Z)—N′-(3-(3-(3-(Pentafluorosulfaneyl)-5-(trifluoromethyl)phenyl)-1H-1,2,4-triazol-1-yl)acryloyl)butyrohydrazide]	48.3	−4.6	1.6	43.6	
		O=C(/C=C\n1cnc(-c2cc(C(F)(F)F)cc(S(F)(F)(F)(F)F)c2)n1)NNc1nccs1 [Compound VI, (Z)-3-(3-(3-(Pentafluorosulfaneyl)-5-(trifluoromethyl)phenyl)-1H-1,2,4-triazol-1-yl)-N′-(thiazol-2-yl)acrylohydrazide]					IC50 (T98G; Homo sapiens, T98G): 2.6 µM; IC50 (LN-229; Homo sapiens, LN-229): 1.7 µM; EC50 (XPO1 [1]; REV-EGFP U2OS cells, Table 2, read-out: Rev-GFP/EC50): 0.0252 µM; IC50 (XPO1 [1]; Table 10, first (or only) value of the cell): 0.0252 µM; IC50 (U251; Homo sapiens, U-251): 3.8 µM
0.1		O=C(/C=C\n1cnc(-c2cc(C(F)(F)F)cc(S(F)(F)(F)(F)F)c2)n1)NNC(=O)C1CC1 [Compound VII, (Z)—N′-(3-(3-(3-(Pentafluorosulfaneyl)-5-(trifluoromethyl)phenyl)-1H-1,2,4-triazol-1-yl)acryloyl)cyclopropanecarbohydrazide]	49.0	−6.4	1.2	45.9	
0.1		CC(C)C(=O)NNC(=O)/C=C\n1cnc(-c2cc(C(F)(F)F)cc(S(F)(F)(F)(F)F)c2)n1 [Compound VIII, (Z)—N′-Isobutyryl-3-(3-(3-(pentafluorosulfaneyl)-5-(trifluoromethyl)phenyl)-1H-1,2,4-triazol-1-yl)acrylohydrazide]	44.0	−10.6	1.8	38.8	
0.2	9.4	O=C(/C=C\n1cnc(-c2cc(C(F)(F)F)cc(S(F)(F)(F)(F)F)c2)n1)NNC(=O)C1CCC1 [Compound X, (Z)—N′-(3-(3-(3-(Pentafluorosulfaneyl)-5-(trifluoromethyl)phenyl)-1H-1,2,4-triazol-1-yl)acryloyl)cyclobutanecarbohydrazide]	58.3	−15.9	0.5	59.4	
0.2		CC1(C(=O)NNC(=O)/C=C\n2cnc(-c3cc(C(F)(F)F)cc(S(F)(F)(F)(F)F)c3)n2)CC1 [Compound XI, (Z)-1-Methyl-N′-(3-(3-(3-(pentafluorosulfaneyl)-5-(trifluoromethyl)phenyl)-1H-1,2,4-triazol-1-yl)acryloyl)cyclopropane-1-carbohydrazide]	48.5	−7.6	1.8	44.6	
0.6	18.5	CC(CO)(CCl)C(=O)NNC(=O)/C=C\n1cnc(-c2cc(C(F)(F)F)cc(S(F)(F)(F)(F)F)c2)n1 (centres unmarked) [Compound XII, (Z)—N′-(3-Chloro-2-(hydroxymethyl)-2-methylpropanoyl)-3-(3-(3-(pentafluorosulfaneyl)-5-(trifluoromethyl)phenyl)-1H-1,2,4-triazol-1-yl)acrylohydrazide]	53.9	−5.5	1.2	50.9	
0.3	10	CC(C)(C)C(=O)NNC(=O)/C=C\n1cnc(-c2cc(C(F)(F)F)cc(C(F)(F)F)c2)n1 [KPT-350, (Z)-3-(3-(3,5-bis(trifluoromethyl)phenyl)-1H-1,2,4-triazol-1-yl)-N′-pivaloylacrylohydrazide, reference compound]	49.4	−13.2	0.8	53.0	
		CCC(=C/[C@H](C)C/C=C/C(C)=C/[C@@H](C)C(=O)[C@@H](C)[C@H](O)[C@@H](C)C/C(C)=C/C(=O)O)/C=C/[C@@H]1OC(=O)C=C[C@@H]1C [LMB, Leptomycin B, reference compound]					sustained retention of REV protein in the nucleus post washout (XPO1 [2]; 50 nM, 1 h treatment then washout): up to 24 hours; effect on retention of REV protein in the nucleus (XPO1 [2]; 50 nM, 72 hours post washout): 30%; toxicity / cell number compared to the control (XPO1 [2]; washout assay): showed toxicity; EC50 (XPO1 [1]; Rev-GFP-U2OS cells, FIG. 1B, read-out: EC50 in the Rev redistribution): 0.00011 µM

— patent publication US11767313B2, “Compounds as nuclear transport modulators and uses thereof” (XWPHARMA LTD., priority 2018, dated 2023)
